Measurements as given in US9133148B2, “Carbamate compounds and of making and using same” (Abide Therapeutics, Inc., priority 2012, dated 2015).
One block for each compound: values may come before it.

Tests used:
MAGL [1] = target: T1, MAGL (Mus musculus (Mouse), UniProt O35678); assay: In vitro competitive activity-based protein profiling (FP-Rh), mouse MAGL; type: biochemical; details: mouse brain membrane proteome
Experimental: (§1) In Vitro Competitive Activity-Based Protein Profiling.
(§2) Proteomes (mouse brain membrane fraction or cell lysates) ([…], 1.0 mg/mL total protein concentration) were preincubated with varying concentrations of inhibitors at 37° C. After 30 min, FP-Rh (1.0 μL, 50 μM in DMSO) was added and the mixture was incubated for another 30 min at 37° C. Reactions were quenched with SDS loading buffer (50 μL—4×) and run on SDS-PAGE.

Human MAGL = Human MAGL (Homo sapiens (Human), UniProt Q99685); assay: Competitive ABPP with recombinant human MAGL expressed in HEK293T cells; type: biochemical
Sequence of Human MAGL (Q99685 whole entry): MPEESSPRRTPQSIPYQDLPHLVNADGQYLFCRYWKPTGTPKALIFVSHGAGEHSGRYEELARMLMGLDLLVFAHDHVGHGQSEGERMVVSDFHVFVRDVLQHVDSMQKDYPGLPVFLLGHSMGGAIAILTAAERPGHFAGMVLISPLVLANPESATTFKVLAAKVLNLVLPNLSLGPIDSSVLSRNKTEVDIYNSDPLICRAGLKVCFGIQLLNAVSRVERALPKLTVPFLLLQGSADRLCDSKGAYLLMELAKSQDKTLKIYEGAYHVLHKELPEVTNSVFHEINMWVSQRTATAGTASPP
Experimental: as §2
Recombinant Expression of Human MAGL in HEK293T Cells.
Cell lysates were diluted with mock proteomes for use in competitive ABPP experiments.

Mouse brain MAGL = Mouse brain MAGL (Mus musculus (Mouse), UniProt O35678); assay: Mouse brain proteomes from inhibitor treated mice (oral gavage, ABPP of brain MAGL); type: in vivo
Sequence of Mouse brain MAGL (O35678 whole entry): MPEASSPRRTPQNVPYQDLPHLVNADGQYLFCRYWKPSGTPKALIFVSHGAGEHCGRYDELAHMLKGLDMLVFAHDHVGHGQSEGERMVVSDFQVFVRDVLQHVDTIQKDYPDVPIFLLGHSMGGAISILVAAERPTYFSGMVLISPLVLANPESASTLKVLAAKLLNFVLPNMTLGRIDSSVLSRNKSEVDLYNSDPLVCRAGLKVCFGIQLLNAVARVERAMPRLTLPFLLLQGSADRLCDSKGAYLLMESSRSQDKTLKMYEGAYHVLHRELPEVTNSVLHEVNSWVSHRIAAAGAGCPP
Experimental: Preparation of Mouse Brain Proteomes from Inhibitor Treated Mice.
Inhibitors were administered to wild-type C57Bl/6J by oral gavage in a vehicle of polyethylene glycol.

FAAH [2] = target: T2, FAAH (Mus musculus (Mouse), UniProt O08914); assay: In vitro competitive activity-based protein profiling (FP-Rh), mouse FAAH; type: biochemical; details: mouse brain membrane proteome
T2 sequence (O08914 whole entry): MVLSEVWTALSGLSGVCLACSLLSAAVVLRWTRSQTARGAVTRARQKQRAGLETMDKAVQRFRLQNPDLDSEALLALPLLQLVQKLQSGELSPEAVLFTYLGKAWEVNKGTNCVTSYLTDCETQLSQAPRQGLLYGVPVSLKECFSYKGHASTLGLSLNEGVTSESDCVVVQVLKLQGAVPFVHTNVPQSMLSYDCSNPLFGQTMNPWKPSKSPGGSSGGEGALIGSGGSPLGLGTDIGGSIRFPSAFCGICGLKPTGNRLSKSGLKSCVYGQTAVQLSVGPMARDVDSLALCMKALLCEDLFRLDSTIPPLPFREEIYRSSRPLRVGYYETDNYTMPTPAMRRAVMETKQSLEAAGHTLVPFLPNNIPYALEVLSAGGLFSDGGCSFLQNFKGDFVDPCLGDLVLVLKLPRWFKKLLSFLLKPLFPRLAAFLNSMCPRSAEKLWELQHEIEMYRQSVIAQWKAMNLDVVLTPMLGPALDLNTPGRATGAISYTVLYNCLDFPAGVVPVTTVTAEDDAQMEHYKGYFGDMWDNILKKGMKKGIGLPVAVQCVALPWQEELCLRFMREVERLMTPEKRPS
Experimental: as §1, §2

ABHD6 [3] = target: T3, ABHD6 (Mus musculus (Mouse), UniProt Q8R2Y0); assay: In vitro competitive activity-based protein profiling (FP-Rh), mouse ABHD6; type: biochemical; details: mouse brain membrane proteome
T3 sequence (Q8R2Y0 whole entry): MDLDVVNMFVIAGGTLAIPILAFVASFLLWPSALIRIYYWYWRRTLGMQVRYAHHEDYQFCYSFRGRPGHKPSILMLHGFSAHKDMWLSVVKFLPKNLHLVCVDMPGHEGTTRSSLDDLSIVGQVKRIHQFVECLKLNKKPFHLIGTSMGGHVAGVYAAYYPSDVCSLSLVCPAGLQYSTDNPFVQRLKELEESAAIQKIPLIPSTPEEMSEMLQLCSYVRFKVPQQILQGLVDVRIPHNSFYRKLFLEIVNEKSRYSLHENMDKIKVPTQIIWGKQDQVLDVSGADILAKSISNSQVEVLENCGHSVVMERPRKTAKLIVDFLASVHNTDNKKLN
Experimental: as §1, §2

MAGL [4] = target: T1, MAGL; assay: Competitive ABPP, % inhibition at 1 uM, MAGL; type: biochemical
Experimental: as §1, §2

ABHD6 [5] = target: T3, ABHD6; assay: Competitive ABPP, % inhibition at 1 uM, ABHD6; type: biochemical
Experimental: as §1, §2

FAAH [6] = target: T2, FAAH; assay: Competitive ABPP, % inhibition at 1 uM, FAAH; type: biochemical
Method in brief: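 Mouse brain membrane proteome or cell lysate (1.0 mg/mL protein) preincubated 30 min at 37° C with inhibitor, then labelled 30 min at 37° C with FP-Rh probe. Resolved by SDS-PAGE; activity from in-gel fluorescence intensity of FAAH band.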

T1 sequence (O35678 whole entry): as the sequence (O35678 whole entry) above

Structure (SMILES): O=C(OC(C(F)(F)F)C(F)(F)F)N1CCN(C(c2ccc(Br)cc2)c2ccc(Br)cc2)CC1 [Example 2c, 1,1,1,3,3,3-hexafluoropropan-2-yl 4-(bis(4-bromophenyl)methyl)-piperazine-1-carboxylate]
IC50 (MAGL [1]; competitive ABPP): 100 to 1000 nM
IC50 (Human MAGL; hMAGL in HEK293T cell lysates): < 100 nM
Mouse brain MAGL (% inhibition at 20 mg/kg, p.o.) (Mouse brain MAGL; 4 h following administration): 94%
IC50 (FAAH [2]; competitive ABPP): > 10000 nM
IC50 (ABHD6 [3]; competitive ABPP): > 1000 nM

Structure (SMILES): O=C(OC(C(F)(F)F)C(F)(F)F)N1CCN(Cc2cccc(Oc3ccccc3)c2)CC1 [Example 3a, 1,1,1,3,3,3-hexafluoropropan-2-yl 4-(3-phenoxybenzyl)piperazine-1-carboxylate]
IC50 (MAGL [1]; competitive ABPP): < 100 nM
IC50 (Human MAGL; hMAGL in HEK293T cell lysates): < 100 nM
Mouse brain MAGL (% inhibition at 20 mg/kg, p.o.) (Mouse brain MAGL; 4 h following administration): >95%
IC50 (FAAH [2]; competitive ABPP): > 10000 nM
IC50 (ABHD6 [3]; competitive ABPP): < 100 nM

Structure (SMILES): O=C(OC(C(F)(F)F)C(F)(F)F)N1CCC(C(O)(c2ccc3c(c2)OCO3)c2ccc3c(c2)OCO3)CC1 [Example 1a, 1,1,1,3,3,3-hexafluoropropan-2-yl 4-(bis(benzo[d][1,3]dioxol-5-yl)(hydroxy)methyl)piperidine-1-carboxylate]
IC50 (MAGL [1]; competitive ABPP): < 100 nM
IC50 (Human MAGL; hMAGL in HEK293T cell lysates): < 100 nM
Mouse brain MAGL (% inhibition at 20 mg/kg, p.o.) (Mouse brain MAGL; 4 h following administration): >95%
IC50 (FAAH [2]; competitive ABPP): > 10000 nM
IC50 (ABHD6 [3]; competitive ABPP): > 1000 nM

Structure (SMILES): CN(Cc1cccc(-c2cccnc2)c1)C(=O)OC(C(F)(F)F)C(F)(F)F [Example 3g, 1,1,1,3,3,3-hexafluoropropan-2-yl methyl(3-(pyridin-3-yl)benzyl)-carbamate]
IC50 (MAGL [1]; competitive ABPP): 100 to 1000 nM
IC50 (Human MAGL; hMAGL in HEK293T cell lysates): < 100 nM
Mouse brain MAGL (% inhibition at 20 mg/kg, p.o.) (Mouse brain MAGL; 4 h following administration): 93%
IC50 (FAAH [2]; competitive ABPP): > 10000 nM
IC50 (ABHD6 [3]; competitive ABPP): < 100 nM

Structure (SMILES): O=C(OC(C(F)(F)F)C(F)(F)F)N1CCC(C(c2ccc3c(c2)OCO3)c2ccc3c(c2)OCO3)CC1 [Example 1c, 1,1,1,3,3,3-hexafluoropropan-2-yl 4-(bis(benzo[d][1,3]dioxol-5-yl)methyl)piperidine-1-carboxylate]
IC50 (MAGL [1]; competitive ABPP): < 100 nM
IC50 (Human MAGL; hMAGL in HEK293T cell lysates): < 100 nM
Mouse brain MAGL (% inhibition at 20 mg/kg, p.o.) (Mouse brain MAGL; 4 h following administration): >95%
IC50 (FAAH [2]; competitive ABPP): > 10000 nM
IC50 (ABHD6 [3]; competitive ABPP): > 1000 nM

Structure (SMILES): O=C(OC(C(F)(F)F)C(F)(F)F)N1CCN(C(c2ccc3c(c2)OCO3)c2ccc3c(c2)OCO3)CC1 [Example 2d, 1,1,1,3,3,3-hexafluoropropan-2-yl 4-(bis(benzo[d][1,3]dioxol-5-yl)methyl)piperazine-1-carboxylate]
IC50 (MAGL [1]; competitive ABPP): < 100 nM
IC50 (Human MAGL; hMAGL in HEK293T cell lysates): < 100 nM
Mouse brain MAGL (% inhibition at 20 mg/kg, p.o.) (Mouse brain MAGL; 4 h following administration): >95%
IC50 (FAAH [2]; competitive ABPP): > 10000 nM
IC50 (ABHD6 [3]; competitive ABPP): 100 to 1000 nM

Structure (SMILES): O=C(OC(C(F)(F)F)C(F)(F)F)N1CCN(C(c2ccc(F)cc2)c2ccc(F)cc2)CC1 [Example 2a, 1,1,1,3,3,3-hexafluoropropan-2-yl 4-(bis(4-fluorophenyl)methyl)-piperazine-1-carboxylate]
IC50 (MAGL [1]; competitive ABPP): < 100 nM
IC50 (Human MAGL; hMAGL in HEK293T cell lysates): < 100 nM
Mouse brain MAGL (% inhibition at 20 mg/kg, p.o.) (Mouse brain MAGL; 4 h following administration): >95%
IC50 (FAAH [2]; competitive ABPP): > 10000 nM
IC50 (ABHD6 [3]; competitive ABPP): > 1000 nM

Other lines, results leading:

IC50 (MAGL [1]; competitive ABPP): < 100 nM
IC50 (Human MAGL; hMAGL in HEK293T cell lysates): < 100 nM
Mouse brain MAGL (% inhibition at 20 mg/kg, p.o.) (Mouse brain MAGL; 4 h following administration): >95%
IC50 (FAAH [2]; competitive ABPP): > 10000 nM
IC50 (ABHD6 [3]; competitive ABPP): > 1000 nM
Structure (SMILES): CC(C)(C)c1ccc(S(=O)(=O)N2CCN(C(=O)OC(C(F)(F)F)C(F)(F)F)CC2)cc1 [Example 4c, 1,1,1,3,3,3-hexafluoropropan-2-yl 4-((4-(tert-butyl)phenyl)sulfonyl)-piperazine-1-carboxylate]

inhibition at 1 µM (MAGL [4]): 25 to 75%
IC50 (MAGL [1]; competitive ABPP (Table 7)): < 100 nM
Mouse brain MAGL (% inhibition at 5 mg/kg, p.o.) (Mouse brain MAGL; 5 mg/kg, 4 h following administration): 75%
IC50 (FAAH [2]; competitive ABPP (Table 7)): > 10000 nM
inhibition at 1 µM (ABHD6 [5]): 25 to 75%
inhibition at 1 µM (FAAH [6]): < 25%
IC50 (ABHD6 [3]; competitive ABPP (Table 7)): > 1000 nM
Structure (SMILES): O=C(OC(C(F)(F)F)C(F)(F)F)N1CCN(Cc2cc(Cl)ccc2N2CCCC2)CC1 [Example 9n, 1,1,1,3,3,3-hexafluoropropan-2-yl 4-[[5-chloro-2-(pyrrolidin-1-yl)phenyl]methyl]piperazine-1-carboxylate]

IC50 (MAGL [1]; competitive ABPP (Table 7)): < 100 nM
IC50 (Human MAGL; hMAGL in HEK293T cell lysates (Table 7)): < 100 nM
ED50 (Mouse brain MAGL; po): < 4 mg/kg
IC50 (FAAH [2]; competitive ABPP (Table 7)): > 6250 nM
IC50 (ABHD6 [3]; competitive ABPP (Table 7)): 100 to 1000 nM
Structure (SMILES): COc1cc(N2CCOCC2)ccc1CN1CCN(C(=O)OC(C(F)(F)F)C(F)(F)F)CC1 [Example 9s, 1,1,1,3,3,3-hexafluoropropan-2-yl 4-(2-methoxy-4-morpholinobenzyl)piperazine-1-carboxylate]
